Measured values from PubChem BioAssay AID190 (DTP/NCI, 2004).
“And” between values parts separate entries of the source, which are not always exact repeats. Equal entries are not always repeated. Toxic doses and inconclusive results are not listed. The calls were made as follows: active = survival T/C of 150% or more; inactive = T/C below 125% in these data.

Tested on: AKR/Lw mice, AKR lymphoma ip, median survival T/C
Assay: NCI In Vivo Anticancer Drug Screen. Data for tumor model Lymphoma AKR (Transplanted) (intraperitoneal) in AKR/Lw mice
Conditions: endpoint: median survival time, higher = longer survival
Method: The antitumor activity of compounds was measured in mice bearing transplantable tumors. Survival or tumor size were measured and the results are expressed as the measurement made in the treated group (T) divided by the measurement made in the vehicle treated control group (C). The tumor model used in this assay is Lymphoma AKR (Transplanted) (intraperitoneal) in AKR/Lw mice

[1] = dose: 400.0 mg/kg/injection, schedule: Q01DX001 (ip), vehicle: Klucel (hydroxypropylcellulose) (HPC)
[2] = dose: 25.0 mg/kg/injection, schedule: Q01DX001 (ip), vehicle: saline
[3] = dose: 100.0 mg/kg/injection, schedule: Q01DX001 (ip), vehicle: Klucel (hydroxypropylcellulose) (HPC)
[4] = dose: 200.0 mg/kg/injection, schedule: Q01DX001 (ip), vehicle: Klucel (hydroxypropylcellulose) (HPC)

Measured: T/C

CC[C@H]1CN2CCc3cc(OC)c(OC)cc3[C@@H]2C[C@@H]1C[C@H]1NCCc2cc(OC)c(OC)cc21
inactive: dose: 0.5 mg/kg/injection, schedule: Q01DX009 (ip), vehicle: saline 100 % of control | dose: 0.75 mg/kg/injection, schedule: Q04DX003 (ip), vehicle: saline 87 % of control | dose: 1.0 mg/kg/injection, schedule: Q01DX009 (ip), vehicle: saline 96 % of control and 107 % of control | dose: 1.25 mg/kg/injection, schedule: Q01DX009 (ip), vehicle: saline 102 % of control | dose: 1.5 mg/kg/injection, schedule: Q04DX003 (ip), vehicle: saline 87 % of control | dose: 2.0 mg/kg/injection, schedule: Q01DX009 (ip), vehicle: saline 96 % of control | dose: 2.5 mg/kg/injection, schedule: Q01DX009 (ip), vehicle: saline with Tween-80 100 % of control | dose: 3.0 mg/kg/injection, schedule: Q01DX001 (ip), vehicle: saline 95 % of control | dose: 3.0 mg/kg/injection, schedule: Q04DX003 (ip), vehicle: saline 97 % of control | dose: 5.0 mg/kg/injection, schedule: Q01DX009 (ip), vehicle: saline with Tween-80 122 % of control | dose: 5.0 mg/kg/injection, schedule: Q04DX003 (ip), vehicle: saline 95 % of control | dose: 6.0 mg/kg/injection, schedule: Q01DX001 (ip), vehicle: saline 111 % of control | dose: 6.0 mg/kg/injection, schedule: Q04DX003 (ip), vehicle: saline 96 % of control and 118 % of control | dose: 6.2 mg/kg/injection, schedule: Q01DX001 (ip), vehicle: saline 105 % of control | dose: 6.2 mg/kg/injection, schedule: Q04DX003 (ip), vehicle: saline 96 % of control and 100 % of control and 124 % of control | dose: 6.25 mg/kg/injection, schedule: Q04DX003 (ip), vehicle: saline 116 % of control and 117 % of control | dose: 7.5 mg/kg/injection, schedule: Q01DX001 (ip), vehicle: saline 111 % of control | dose: 10.0 mg/kg/injection, schedule: Q01DX009 (ip), vehicle: saline with Tween-80 106 % of control | dose: 12.0 mg/kg/injection, schedule: Q01DX001 (ip), vehicle: saline 115 % of control | dose: 12.5 mg/kg/injection, schedule: Q01DX001 (ip), vehicle: saline 103 % of control and 113 % of control | dose: 15.0 mg/kg/injection, schedule: Q01DX001 (ip), vehicle: saline 117 % of control

COc1ccc(N2C(=O)CC(Sc3ccccc3N)C2=O)cc1 (stereo unspecified)
inactive: [1] 87 % of control

CN(C)C(C)(C)CNc1ccc(C(=O)O)cc1
inactive: [2] 88 % of control | dose: 50.0 mg/kg/injection, schedule: Q01DX001 (ip), vehicle: saline 91 % of control and 95 % of control | dose: 100.0 mg/kg/injection, schedule: Q01DX001 (ip), vehicle: saline 97 % of control and 91 % of control

Nc1n[nH]c(N)n1
inactive: dose: 37.5 mg/kg/injection, schedule: Q06HX012 (ip), vehicle: saline 96 % of control | dose: 37.5 mg/kg/injection, schedule: Q06HX016 (ip), vehicle: saline 100 % of control | dose: 50.0 mg/kg/injection, schedule: Q01DX010 (ip), vehicle: saline 106 % of control | dose: 75.0 mg/kg/injection, schedule: Q06HX008 (ip), vehicle: saline 100 % of control | dose: 75.0 mg/kg/injection, schedule: Q06HX012 (ip), vehicle: saline 93 % of control | dose: 75.0 mg/kg/injection, schedule: Q06HX016 (ip), vehicle: saline 96 % of control | dose: 100.0 mg/kg/injection, schedule: Q01DX010 (ip), vehicle: saline 103 % of control | dose: 125.0 mg/kg/injection, schedule: Q06HX004 (ip), vehicle: saline 116 % of control | dose: 150.0 mg/kg/injection, schedule: Q01DX009 (ip), vehicle: saline 103 % of control | dose: 150.0 mg/kg/injection, schedule: Q06HX008 (ip), vehicle: saline 93 % of control | dose: 150.0 mg/kg/injection, schedule: Q06HX012 (ip), vehicle: saline 110 % of control | dose: 150.0 mg/kg/injection, schedule: Q06HX016 (ip), vehicle: saline 103 % of control | dose: 175.0 mg/kg/injection, schedule: Q01DX010 (ip), vehicle: saline 109 % of control | dose: 200.0 mg/kg/injection, schedule: Q04DX003 (ip), vehicle: saline 106 % of control | dose: 250.0 mg/kg/injection, schedule: Q01DX010 (ip), vehicle: saline 112 % of control | dose: 250.0 mg/kg/injection, schedule: Q06HX004 (ip), vehicle: saline 90 % of control and 92 % of control and 119 % of control | dose: 300.0 mg/kg/injection, schedule: Q01DX009 (ip), vehicle: saline 100 % of control | dose: 300.0 mg/kg/injection, schedule: Q06HX008 (ip), vehicle: saline 107 % of control | dose: 300.0 mg/kg/injection, schedule: Q06HX012 (ip), vehicle: saline 100 % of control | dose: 375.0 mg/kg/injection, schedule: Q01DX010 (ip), vehicle: saline 116 % of control | dose: 400.0 mg/kg/injection, schedule: Q04DX003 (ip), vehicle: saline 110 % of control | dose: 450.0 mg/kg/injection, schedule: Q06HX008 (ip), vehicle: saline 107 % of control | dose: 450.0 mg/kg/injection, schedule: Q06HX012 (ip), vehicle: saline 92 % of control | dose: 500.0 mg/kg/injection, schedule: Q06HX004 (ip), vehicle: saline 88 % of control and 116 % of control | dose: 530.0 mg/kg/injection, schedule: Q04DX003 (ip), vehicle: saline 109 % of control | dose: 675.0 mg/kg/injection, schedule: Q06HX012 (ip), vehicle: saline 107 % of control | dose: 800.0 mg/kg/injection, schedule: Q04DX003 (ip), vehicle: saline 121 % of control | dose: 1000.0 mg/kg/injection, schedule: Q06HX008 (ip), vehicle: saline 92 % of control

COc1cc2c(cc1OC)C13CCN4CC5=CCOC6CC(=O)N2C1C6C5CC43 (stereo unspecified) (tested in a mixture with another compound)
inactive: dose: 45.0 mg/kg/injection, schedule: Q01DX001 (ip), vehicle: Klucel (hydroxypropylcellulose) (HPC) 100 % of control | dose: 65.0 mg/kg/injection, schedule: Q01DX001 (ip), vehicle: Klucel (hydroxypropylcellulose) (HPC) 100 % of control | [3] 106 % of control and 108 % of control | dose: 150.0 mg/kg/injection, schedule: Q01DX001 (ip), vehicle: Klucel (hydroxypropylcellulose) (HPC) 100 % of control

C[N+](C)(C)Cc1ccccc1
inactive: [2] 91 % of control

CC(=O)CC(=O)c1ccccc1
inactive: [3] 106 % of control | [4] 106 % of control | [1] 103 % of control

COc1cc2c(cc1OC)C(CNC(=O)/C=C/c1ccccc1)C2 (stereo unspecified)
inactive: [3] 102 % of control | dose: 100.0 mg/kg/injection, schedule: Q04DX003 (ip), vehicle: Klucel (hydroxypropylcellulose) (HPC) 96 % of control | [4] 94 % of control | dose: 200.0 mg/kg/injection, schedule: Q04DX003 (ip), vehicle: Klucel (hydroxypropylcellulose) (HPC) 100 % of control | [1] 89 % of control | dose: 400.0 mg/kg/injection, schedule: Q04DX003 (ip), vehicle: Klucel (hydroxypropylcellulose) (HPC) 100 % of control

CCOC(=O)C(O)C(C#N)c1ccccc1 (stereo unspecified)
inactive: dose: 100.0 mg/kg/injection, schedule: Q01DX001 (ip), vehicle: other 103 % of control | dose: 200.0 mg/kg/injection, schedule: Q01DX001 (ip), vehicle: other 103 % of control | dose: 400.0 mg/kg/injection, schedule: Q01DX001 (ip), vehicle: other 100 % of control

COc1cc2c(cc1OC)C1CCN3CCCC3N1CC2 (stereo unspecified)
inactive: [3] 100 % of control
